The values that follow come from article PMC9411704, “Assessment of the Carcinogenic Potential of Pretomanid in Transgenic Tg.rasH2 Mice” (International Journal of Toxicology, 2022).

On the set-up of data set [1]: method as in Drug Prescribing information. The conditions noted are these: ref Drug Prescribing information; cited from earlier work.
The subject of a further data set is Mice. Also noted: method as in Drug Prescribing information. The following applies: ref Drug Prescribing information; cited from earlier work.
The next data set concerns Rats. More on the design: method as in Drug Prescribing information. The following applies: ref Drug Prescribing information; cited from earlier work.
Another data set has as its system Tg.rasH2 mice. The conditions noted are these: for Incidence of lung adenoma, single / Incidence of lung carcinoma / Incidence of lung adenoma, multiple / Incidence of lung tumors, combined: three IP injections of 1000 mg/kg/day urethane; for Incidence of lung adenoma, multiple / Incidence of lung tumors, combined: P < 0.01; for Mean body weight / Mean food consumption: (SD). The protocol:
The vehicle was 0.5% carboxymethylcellulose (CMC) with 0.1% Tween 80 (v/v). The vehicle and pretomanid formulations were administered to mice by oral gavage once daily at a dosing volume of 10 mL/kg. Individual dose volumes were calculated based on each animal’s most recently recorded body weight. The dose formulations were magnetically stirred at room temperature for at least 30 minutes prior to and during dosing. The positive control was urethane in 0.9% sodium chloride and was administered via intraperitoneal injection for a total of three times. The positive control formulation was allowed to stand at room temperature for at least 30 minutes and inverted several times prior to dose administration. Aliquots (0.5 to 1.0 mL) were collected from the top, bottom, and middle of the first (week 1), interim (week 13), and last (week 25) pretomanid dose formulations to assess the accuracy of the concentration and/or homogeneity.
Male and female Tg.rasH2 [CByB6F1-Tg(HRAS)2Jic (+/−hemizygous c-Ha-ras)] mice (n = 110/sex) approximately 5 weeks of age were assigned to the main cohort groups to assess carcinogenicity. Male and female wild type CByB6F1 mice [CByB6F1-Tg(HRAS)2Jic (−/−homozygous c-Ha-ras)] (n = 34/sex) approximately 6 weeks of age were assigned to the cohort of mice used to assess the toxicokinetics of pretomanid and its M50 metabolite. […] All mice were obtained from Taconic Biosciences (Germantown, NY). The supplier verified that the mice were murine pathogen-free and females were nulliparous and non-pregnant. At the time of dosing initiation (Day 1), the toxicokinetic mice were approximately 8 weeks of age. On Day 1 of the study, the body weights of the main cohort mice ranged from 19.2 to 25.9 grams (males) and from 15.9 to 20.4 grams (females), and the body weights of the TK cohort mice ranged from 23.4 to 30.2 grams (males) and from 17.6 to 23.5 grams (females).
This study assessed the carcinogenic potential of pretomanid following repeated oral gavage administration once daily for 26 weeks in hemizygous Tg.rasH2 [CByB6F1-Tg(HRAS)2Jic (+/− hemizygous c-Ha-ras)] mice. This study also evaluated the TK profile of pretomanid and metabolite M50 in wild-type CByB6F1 [CByB6F1-Tg(HRAS)2Jic (−/−homozygous c-Ha-ras)] mice. The study was conducted under GLP regulations.
For carcinogenicity assessment (main cohort), 25 mice/sex were included in the vehicle control and pretomanid-treated groups. At the time of dosing initiation (Day 1), the main cohort mice used for assessing carcinogenicity were approximately 7 weeks of age and weighed between 15.9 to 20.4 g (females) and 19.2 to 25.9 g (males). Male groups (Groups 2, 4, and 6) received pretomanid in vehicle at doses of 5, 15, and 40 mg/kg/day, respectively. Female groups (Groups 3, 5, and 7) received pretomanid in vehicle at doses of 10, 30, and 80 mg/kg/day. Positive control mice (n = 10/sex) were included in the main cohort and received three intraperitoneal injections of urethane in saline (1000 mg/kg/injection) on Days 1, 3, and 5. The test and control articles were administered at a dose volume of 10 mL/kg body weight.
Clinical signs, body weights, and food consumption were assessed for the main cohort animals to monitor animal health and any potential toxicity from pretomanid administration. In-life measurements were recorded in Provantis™ Version 9.4.6.3 (Instem, Philadelphia, PA).
All animals, including those in the TK cohort, were observed twice daily for morbidity and mortality. For animals in the main cohort, cage side observations were performed on the day of dosing within 2 hours after the last animal in each group was dosed (Days 1, 3, and 5 for positive control animals).

Like-named read-outs stand apart in the source and are kept apart here. Marks after values point to notes of the source that are not given here.

Turning to `O=C(Cn1ccnc1[N+](=O)[O-])NCc1ccccc1` [Benznidazole], the Genotoxicity entry in data set [1] was “Positive in vitro and in vivo”.
For `CCN(CC)C(=O)/C(C#N)=C/c1cc(O)c(O)c([N+](=O)[O-])c1` [Entacapone], the Genotoxicity result in data set [1] is on record as “Positive in vitro, negative in vivo”. The Carcinogenicity in mice entry in the data set on Mice was “Not carcinogenic”. Also, the Carcinogenicity in rats result in the data set with Rats is recorded as “Carcinogenic”.
As to `Cc1ncc([N+](=O)[O-])n1CCO` [Metronidazole], the Genotoxicity entry in data set [1] was “Positive in vitro, negative in vivo”.
For the molecule `O=C1CN(/N=C/c2ccc([N+](=O)[O-])o2)C(=O)N1` [Nitrofurantion], the Genotoxicity result in data set [1] is given as “Positive in vitro, negative in vivo”. The Carcinogenicity in mice result in the data set with Mice is reported as “Not carcinogenic in Swiss or BDF mice, carcinogenic in female B6C3F1 mice”. In addition, the Carcinogenicity in rats entry with Rats was “Not carcinogenic in Holtzman rats or Sprague-Dawley rats, carcinogenic in male F344/N rats”.
In the case of `CCOC(N)=O` [Positive control, urethane], the “Incidence of lung adenoma, single” value with Tg.rasH2 mice (female) and with Tg.rasH2 mice (male) was 0% each time. Moreover, the “Incidence of lung carcinoma” value in the data set with Tg.rasH2 mice (female) and in the data set on Tg.rasH2 mice (male) was 0% throughout. Also, the “Incidence of lung adenoma, multiple” value in the data set with Tg.rasH2 mice (female) and in the data set on Tg.rasH2 mice (male) was 100%* in each case. The “Incidence of lung tumors, combined” value in the data set on Tg.rasH2 mice (female) and in the data set with Tg.rasH2 mice (male) was 100%* throughout. Moreover, the Mean body weight is listed as 17.89 (0.57) Grams in the data set on Tg.rasH2 mice (female, urethane 1000 mg/kg IP Days 1, 3, 5, study day 1); 19.81 (0.58) Grams with Tg.rasH2 mice (female, urethane 1000 mg/kg IP Days 1, 3, 5, study day 29); 22.11 (0.68) Grams with Tg.rasH2 mice (female, urethane 1000 mg/kg IP Days 1, 3, 5, study day 57); 21.99 (0.71) Grams in the data set on Tg.rasH2 mice (male, urethane 1000 mg/kg IP Days 1, 3, 5, study day 1); 24.81 (1.41) Grams in the data set on Tg.rasH2 mice (male, urethane 1000 mg/kg IP Days 1, 3, 5, study day 29); 27.73 (1.74) Grams in the data set with Tg.rasH2 mice (male, urethane 1000 mg/kg IP Days 1, 3, 5, study day 57). In addition, the Mean food consumption in the data set on Tg.rasH2 mice (female, urethane 1000 mg/kg IP Days 1, 3, 5, study days 1-8) is reported as 3.313 (1.048) Grams/Day; with Tg.rasH2 mice (female, urethane 1000 mg/kg IP Days 1, 3, 5, study days 29-36), 6.218 (1.222) Grams/Day; in the data set on Tg.rasH2 mice (female, urethane 1000 mg/kg IP Days 1, 3, 5, study days 57-64) it was 4.210 (0.524) Grams/Day; in the data set on Tg.rasH2 mice (male, urethane 1000 mg/kg IP Days 1, 3, 5, study days 1-8), 2.894 (0.461) Grams/Day; in the data set with Tg.rasH2 mice (male, urethane 1000 mg/kg IP Days 1, 3, 5, study days 29-36), 4.044 (0.374) Grams/Day; in the data set with Tg.rasH2 mice (male, urethane 1000 mg/kg IP Days 1, 3, 5, study days 57-64), 3.956 (0.359) Grams/Day. Further, the Clinical signs result with Tg.rasH2 mice (urethane 1000 mg/kg IP Days 1, 3, 5) is “ataxia and decreased motor activity”. In addition, in the data set with Tg.rasH2 mice (urethane 1000 mg/kg IP, first week of the study), the Body weight change result is on record as “weight loss”. Also, the “Incidence of alveolar bronchiolar adenomas” value in the data set on Tg.rasH2 mice (urethane, each sex, P < 0.01 vs vehicle control) turned out to be 100%.
